Where “and” joins values, the source holds several entries; their conditions need not be identical. Identical values can stand only once.
Assays:
[1] = molecular target: T1, LRRK2^KW (Homo sapiens, UniProt Q5S007); assay: DSF thermal stabilization of LRRK2^KW; type: binding; conditions: DSF, LRRK2^KW, 10 μM inhibitor
T1 construct: LRRK2 R1847 to E2527; His6-Z-tag (TEV cleavable) (N, cleaved yes); host or cells: Sf9 insect cells (baculovirus)
T1 sequence (Q5S007 1847-2527): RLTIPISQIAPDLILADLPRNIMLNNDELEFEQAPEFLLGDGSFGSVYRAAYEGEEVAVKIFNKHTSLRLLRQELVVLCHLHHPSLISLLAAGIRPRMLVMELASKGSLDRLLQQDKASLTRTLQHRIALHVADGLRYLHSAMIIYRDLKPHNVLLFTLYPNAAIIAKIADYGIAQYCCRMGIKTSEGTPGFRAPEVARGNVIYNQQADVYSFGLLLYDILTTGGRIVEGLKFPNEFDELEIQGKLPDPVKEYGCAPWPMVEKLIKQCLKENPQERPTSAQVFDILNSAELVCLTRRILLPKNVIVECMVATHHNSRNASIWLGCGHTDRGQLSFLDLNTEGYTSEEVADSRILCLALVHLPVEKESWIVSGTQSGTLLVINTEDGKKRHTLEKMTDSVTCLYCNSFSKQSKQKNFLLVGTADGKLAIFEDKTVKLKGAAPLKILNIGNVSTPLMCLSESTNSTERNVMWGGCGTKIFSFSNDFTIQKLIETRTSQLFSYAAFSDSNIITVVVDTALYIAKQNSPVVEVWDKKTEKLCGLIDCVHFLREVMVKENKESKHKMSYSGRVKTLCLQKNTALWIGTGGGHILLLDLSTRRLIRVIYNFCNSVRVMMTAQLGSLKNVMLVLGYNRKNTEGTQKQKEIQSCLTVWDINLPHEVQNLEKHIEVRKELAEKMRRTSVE
Summary of the method: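 DSF on 4 μM LRRK2^KW in 20 mM Hepes pH 7.4, 150 mM NaCl, 0.5 mM TCEP, 0.5% glycerol, 20 μM GDP, 2.5 mM MgCl2 with SYPRO Orange; inhibitor at 10 μM. Tm was taken as the minimum of the first derivative of fluorescence versus temperature, relative to control.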

[2] = molecular target: T2, LRRK2^RCKW (Homo sapiens, UniProt Q5S007); assay: Biochemical LRRK2 activity assay (PhosphoSense, AssayQuant SOX peptide AQT0615); conditions: for IC50: LRRK2^RCKW kinase activity, in vitro; for normalized response (LRRK2 activity): normalized to 0% (no kinase) and 100% (no inhibitor) control, two singlicate columns per compound
T2 construct: LRRK2 R1327 to E2527; His6-Z-tag (TEV cleavable) (N, cleaved yes); host or cells: Sf9 insect cells (baculovirus)
T2 sequence (Q5S007 1327-2527): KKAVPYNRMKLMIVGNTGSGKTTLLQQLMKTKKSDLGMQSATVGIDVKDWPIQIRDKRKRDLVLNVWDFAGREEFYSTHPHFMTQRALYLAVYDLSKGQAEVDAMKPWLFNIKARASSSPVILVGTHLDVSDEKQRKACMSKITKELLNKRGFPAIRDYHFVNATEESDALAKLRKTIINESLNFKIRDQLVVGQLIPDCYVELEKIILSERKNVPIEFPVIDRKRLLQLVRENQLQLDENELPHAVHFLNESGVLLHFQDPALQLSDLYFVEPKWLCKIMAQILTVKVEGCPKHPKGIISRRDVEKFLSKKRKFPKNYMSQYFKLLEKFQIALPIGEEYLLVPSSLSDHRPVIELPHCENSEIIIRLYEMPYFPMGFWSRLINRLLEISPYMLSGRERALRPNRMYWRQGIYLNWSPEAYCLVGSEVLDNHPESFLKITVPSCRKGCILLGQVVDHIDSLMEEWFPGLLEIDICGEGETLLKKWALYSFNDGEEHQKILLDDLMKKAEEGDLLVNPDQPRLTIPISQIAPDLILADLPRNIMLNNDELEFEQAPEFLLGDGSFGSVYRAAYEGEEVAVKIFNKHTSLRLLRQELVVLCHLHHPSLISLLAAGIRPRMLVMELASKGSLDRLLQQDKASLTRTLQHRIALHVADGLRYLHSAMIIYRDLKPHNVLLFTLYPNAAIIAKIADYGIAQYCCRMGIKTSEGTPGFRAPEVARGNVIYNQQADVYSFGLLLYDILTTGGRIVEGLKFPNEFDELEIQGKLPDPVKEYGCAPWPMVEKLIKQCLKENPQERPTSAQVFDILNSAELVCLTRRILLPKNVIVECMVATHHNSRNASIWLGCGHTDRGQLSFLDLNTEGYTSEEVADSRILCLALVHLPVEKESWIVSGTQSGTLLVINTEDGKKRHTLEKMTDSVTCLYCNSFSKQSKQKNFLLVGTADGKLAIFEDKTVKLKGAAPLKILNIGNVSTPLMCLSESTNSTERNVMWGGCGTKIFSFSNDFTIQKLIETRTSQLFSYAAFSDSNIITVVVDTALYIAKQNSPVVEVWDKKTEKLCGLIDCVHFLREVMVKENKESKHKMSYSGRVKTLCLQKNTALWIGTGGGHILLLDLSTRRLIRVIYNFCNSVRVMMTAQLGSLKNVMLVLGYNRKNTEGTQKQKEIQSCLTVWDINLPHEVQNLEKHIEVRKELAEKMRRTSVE
Summary of the method: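 Controls lacked protein and compound (0%) or compound only (100%). IC50 derived by nonlinear regression of normalized response versus log[inhibitor].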

SMILES: Cc1ccc(-n2nc(C(C)(C)C)cc2NC(=O)Nc2cccc(-c3c[nH]c4ncnc(N5CCOCC5)c34)c2)cc1 [Compound 29]
- ∆Tm (K) [1]: 21.0 K
- IC50 [2]: 20.2 ± 0.01 nM
- normalized response (LRRK2 activity) ([2]; log[inhibitor(mol)] -5.12494): -15.0137% and -16.6919%
- normalized response (LRRK2 activity) ([2]; log[inhibitor(mol)] -5.60206): -14.1253% and -13.1052%
- normalized response (LRRK2 activity) ([2]; log[inhibitor(mol)] -6.30103): -11.8493% and -10.5551%
- normalized response (LRRK2 activity) ([2]; log[inhibitor(mol)] -6.90309): -5.6961% and -4.1002%
- normalized response (LRRK2 activity) ([2]; log[inhibitor(mol)] -7.30103): 9.533% and 17.3374%
- normalized response (LRRK2 activity) ([2]; log[inhibitor(mol)] -7.60206): 45.8935% and 45.9868%
- normalized response (LRRK2 activity) ([2]; log[inhibitor(mol)] -8.09691): 84.3047% and 80.6906%
- normalized response (LRRK2 activity) ([2]; log[inhibitor(mol)] -8.61979): 106.121% and 110.711%
- normalized response (LRRK2 activity) ([2]; log[inhibitor(mol)] -9.09691): 109.51% and 103.466%
- normalized response (LRRK2 activity) ([2]; log[inhibitor(mol)] -9.39794): 104.536% and 110.261%

SMILES: Cc1ccc(NC(=O)C2(C(=O)Nc3cccc(-c4c[nH]c5ncnc(N6CCOCC6)c45)c3)CC2)cc1 [Compound 14]
- ∆Tm (K) [1]: 9.1 K
- IC50 [2]: 156 ± 33 nM
- normalized response (LRRK2 activity) ([2]; log[inhibitor(mol)] -5.12494): -6.986% and -9.956%
- normalized response (LRRK2 activity) ([2]; log[inhibitor(mol)] -5.60206): 21.8981% and 20.2655%
- normalized response (LRRK2 activity) ([2]; log[inhibitor(mol)] -6.30103): 13.87% and 15.03%
- normalized response (LRRK2 activity) ([2]; log[inhibitor(mol)] -6.90309): 58.2022% and 57.0299%
- normalized response (LRRK2 activity) ([2]; log[inhibitor(mol)] -7.30103): 81.6541% and 110.82%
- normalized response (LRRK2 activity) ([2]; log[inhibitor(mol)] -7.60206): 85.6497% and 54.8081%
- normalized response (LRRK2 activity) ([2]; log[inhibitor(mol)] -8.09691): 91.8548% and 92.1679%
- normalized response (LRRK2 activity) ([2]; log[inhibitor(mol)] -8.61979): 98.0477% and 97.5874%
- normalized response (LRRK2 activity) ([2]; log[inhibitor(mol)] -9.09691): 93.5857% and 99.2323%
- normalized response (LRRK2 activity) ([2]; log[inhibitor(mol)] -9.39794): 96.7834% and 110.495%

Source: article PMC12136037, “Type II kinase inhibitors that target Parkinson’s disease–associated LRRK2” (Science Advances, 2025)
